Data as given in EP3041456B1, “COMPOSITION AND METHOD FOR INDUCING OR STIMULATING GROWTH OF KERATINOUS FIBRES” (priority 2013, dated 2015).

Key:
[1] = test system: hair follicles; assay: Components of turpentine oil: number of hair follicles after 4-week topical treatment; type: in vivo, mice; conditions: 4 weeks; for Mean number of hair follicles per 1 mm of skin +/- S.D.: 0.1 mL topically twice weekly, 10 mice per group
Excerpt: (§1) The following commercially available, components of turpentine oil were investigated: • (-) α-pinene; product No 13.127.32 Janssen Chim. 2440 Geel, Belgium • (+) α-pinene; product No 13.126.31 Janssen Chim. 2440, Geel Belgium • (-) β-pinene; product No 15.032.94 Janssen Chim, Geel, Belgium • Turpentine oil crude industrial product was originated from Portugal.
(§2) Young adult, male mice of the N.M.R.I. strain, weighing at the beginning of the experiment +/- 30 g were used, as in previous experiments.
(§3) The protocols used were similar to those described in the previous experiments and study was realized during summer months (July and August). Hair coats were cut along the dorsal surfaces with electric clippers in an area of +/- 6.0 cm^2 two days before treatments. Mice were divided into 4 groups of 10 animals. Each mouse received either • (1) A dose of 0.1 mL of 5% absolute ethanol solution of turpentine oil, • (2) (-) α-pinene, • (3) (+) α-pinene or • (4) (-) β-pinene administered topically on the surface of the shaved skin twice weekly.
(§4) Control groups of the same number and similar age and sex mice were treated the same way but topically applied the solvent alone (absolute ethanol).
(§5) After a 4-week treatment duration all the mice were sacrificed by decapitation, and general autopsies were performed in which skin and main organs specimens were excised and fixed in 10% formalin for histological examination after paraffin embedding and hematoxylin -eosin staining.
(§6) The following evaluating criteria of the observations and results were used: • (1) body and main organ weights, • (2) skin and main organs histological patterns, • (3) semi quantitative evaluation of hair follicles per 1 mm long area in a 5 different areas of the histological sections of the skin of each animal in each group at 100 x microscopic magnification.

[2] = Components of turpentine oil: body and main organ weights, autopsy, histology; type: in vivo, mice; set-up: main organs' weights, Liver / main organs' weights, Spleen / main organs' weights, 2 kidneys / main organs' weights, 2 testicles / main organs' weights, Thymus / main organs' weights, Brain: unit not given here; conditions: 5% in ethanol, 4 weeks; for Total body weight in gram / main organs' weights, 2 kidneys / main organs' weights, 2 testicles / main organs' weights, Brain / main organs' weights, Liver / main organs' weights, Spleen / main organs' weights, Thymus: Mean +/- S.D., 10 mice per group
Excerpt: as §1, §2, §3, §4, §5, §6

Row | Compound | Mean number of hair follicles per 1 mm of skin +/- S.D. ([1]; 5% in absolute ethanol) | Mean number of hair follicles per 1 mm of skin +/- S.D. ([1]; 5% in absolute ethanol, listed as (+) α- pinene) | activity (hair follicles multiplication) compared with the control group ([1]; 5% in ethanol) | Total body weight in gram [2] | main organs' weights, 2 kidneys [2] | main organs' weights, 2 testicles [2] | main organs' weights, Brain [2] | main organs' weights, Liver [2] | main organs' weights, Spleen [2] | main organs' weights, Thymus [2] | Mean number of hair follicles per 1 mm of skin +/- S.D. ([1]; 5% in absolute ethanol, listed as (-) α- pinene) | mice with more than 50 hair follicles ([1]; 5% in absolute ethanol, group of 10 mice) | local skin alteration (clinical signs or microscopic examination) ([1]; 5% in ethanol) | general toxicity [2] | Mean number of hair follicles per 1 mm of skin +/- S.D. ([1]; 5% in absolute ethanol, listed as (-) β- pinene) | Mean number of hair follicles per 1 mm of skin +/- S.D. ([1]; 5% in absolute ethanol, listed as β-pinene)
1 | CC1=CC[C@@H]2C[C@H]1C2(C)C [(+) α-pinene, (1R)-(+)-α-pinene] | 28.9 per 1 mm of skin | 28.9 ± 6.4 per 1 mm of skin | only slightly superior to the effects of treatment with the solvent lone | 40.1 ± 3.73 gram | 840 ± 89.7 | 432 ± 34.9 | 658 ± 23.8 | 2834 ± 283.4 | 390 ± 36.7 | 266 ± 18.1 |  |  |  |  |  | 
2 | CC1=CC[C@H]2C[C@@H]1C2(C)C [(-) α-pinene, (1S)-(-)-α-pinene] | 52.6 per 1 mm of skin |  | more than double | 39.5 ± .42 gram | 814 ± 121.7 | 440 ± 41.8 | 674 ± 23 | 2790 ± 449.9 | 332 ± 24.9 | 252 ± 22.8 | 52.6 ± 7.8 per 1 mm of skin | 6 out of 10 | did not produce any local skin alteration | neither any sign of a possible general toxicity |  | 
3 | C=C1CC[C@H]2C[C@@H]1C2(C)C [(-) β-pinene, (1S)-(-)-β-pinene] |  |  | only slightly superior to the effects of treatment with the solvent lone |  |  |  |  |  |  |  |  |  |  |  | 28.1 ± 7.6 per 1 mm of skin | 28.1 per 1 mm of skin
